In the supplement of paper PMC10307832:

Experiments:
Assay in all cases: relative viability (nuclei count vs DMSO), 5 days (fraction); higher = more cells survive
Bleomycin + Lapatinib = compound: CC1=C(N=C(N=C1N)[C@H](CC(=O)N)NC[C@@H](C(=O)N)N)C(=O)N[C@@H]([C@H](C2=CN=CN2)OC3C(C(C(C(O3)CO)O)O)OC4C(C(C(C(O4)CO)O)OC(=O)N)O)C(=O)N[C@H](C)[C@H]([C@H](C)C(=O)N[C@@H]([C@@H](C)O)C(=O)NCCC5=NC(=CS5)C6=NC(=CS6)C(=O)NCCC[S+](C)C)O [Bleomycin] + CS(=O)(=O)CCNCc1ccc(-c2ccc3ncnc(Nc4ccc(OCc5cccc(F)c5)c(Cl)c4)c3c2)o1 [Lapatinib] (partner 2 µM); conditions: main component drawn
How it was run: (§1)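 A single step with final 0.05% Triton X-100, 1% formaldehyde and 1 ug/ml Hoechst fixed the cells and stained nuclei 5 days after treatment. Lung cancer cell lines in 1536-well plates had been treated by pin tool the day after seeding with one drug alone or a fixed anchor-drug dose plus five library-drug doses (not always all listed) in √10 steps, and nuclei were counted on 4× images. Relative viability is the ratio of nuclei in treated wells to nuclei in vehicle wells, taken as the median of duplicate plates.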

Bleomycin + Navitoclax = compound: CC1=C(N=C(N=C1N)[C@H](CC(=O)N)NC[C@@H](C(=O)N)N)C(=O)N[C@@H]([C@H](C2=CN=CN2)OC3C(C(C(C(O3)CO)O)O)OC4C(C(C(C(O4)CO)O)OC(=O)N)O)C(=O)N[C@H](C)[C@H]([C@H](C)C(=O)N[C@@H]([C@@H](C)O)C(=O)NCCC5=NC(=CS5)C6=NC(=CS6)C(=O)NCCC[S+](C)C)O [Bleomycin] + CC1(C)CCC(c2ccc(Cl)cc2)=C(CN2CCN(c3ccc(C(=O)NS(=O)(=O)c4ccc(N[C@H](CCN5CCOCC5)CSc5ccccc5)c(S(=O)(=O)C(F)(F)F)c4)cc3)CC2)C1 [Navitoclax] (partner 0.5 µM); conditions: main component drawn
How it was run: as §1

Etoposide + Dasatinib = compound: COc1cc([C@@H]2c3cc4c(cc3[C@@H](O[C@@H]3O[C@@H]5CO[C@@H](C)O[C@H]5[C@H](O)[C@H]3O)[C@H]3COC(=O)[C@H]23)OCO4)cc(OC)c1O [Etoposide] + Cc1nc(Nc2ncc(C(=O)Nc3c(C)cccc3Cl)s2)cc(N2CCN(CCO)CC2)n1 [Dasatinib] (partner 0.075 µM)
How it was run: as §1

Etoposide + Luminespib = compound: COc1cc([C@@H]2c3cc4c(cc3[C@@H](O[C@@H]3O[C@@H]5CO[C@@H](C)O[C@H]5[C@H](O)[C@H]3O)[C@H]3COC(=O)[C@H]23)OCO4)cc(OC)c1O [Etoposide] + CCNC(=O)c1noc(-c2cc(C(C)C)c(O)cc2O)c1-c1ccc(CN2CCOCC2)cc1 [Luminespib] (partner 0.01 µM)
How it was run: as §1

| Cell Line | relative viability (Bleomycin + Lapatinib; first compound 0.01 µM) | relative viability (Bleomycin + Lapatinib; first compound 0.03162 µM) | relative viability (Bleomycin + Lapatinib; first compound 0.1 µM) | relative viability (Bleomycin + Lapatinib; first compound 0.3162 µM) | relative viability (Bleomycin + Lapatinib; first compound 1 µM) | relative viability (Bleomycin + Navitoclax; first compound 0.01 µM) | relative viability (Bleomycin + Navitoclax; first compound 0.03162 µM) | relative viability (Bleomycin + Navitoclax; first compound 0.1 µM) | relative viability (Bleomycin + Navitoclax; first compound 0.3162 µM) | relative viability (Bleomycin + Navitoclax; first compound 1 µM) | relative viability (Etoposide + Dasatinib; first compound 0.01 µM) | relative viability (Etoposide + Dasatinib; first compound 0.03162 µM) | relative viability (Etoposide + Dasatinib; first compound 0.1 µM) | relative viability (Etoposide + Dasatinib; first compound 0.3162 µM) | relative viability (Etoposide + Dasatinib; first compound 1 µM) | relative viability (Etoposide + Luminespib; first compound 0.01 µM) | relative viability (Etoposide + Luminespib; first compound 0.03162 µM) | relative viability (Etoposide + Luminespib; first compound 0.1 µM) | relative viability (Etoposide + Luminespib; first compound 0.3162 µM) | relative viability (Etoposide + Luminespib; first compound 1 µM) |
| --- | --- | --- | --- | --- | --- | --- | --- | --- | --- | --- | --- | --- | --- | --- | --- | --- | --- | --- | --- | --- |
| NCI-H2087 | 0.642 | 0.97 | 0.798 | 0.301 | 0.235 | 0.69 | 1.04 | 0.841 | 0.371 | 0.158 | 0.672 | 1.06 | 0.653 | 0.553 | 0.166 | 0.153 | 0.162 | 0.165 | 0.164 | 0.155 |
| COR-L23 | 0.707 | 0.776 | 0.294 | 0.14 | 0.115 | 0.811 | 0.723 | 0.332 | 0.0914 | 0.104 | 0.398 | 0.461 | 0.428 | 0.26 | 0.161 | 0.573 | 0.802 | 0.536 | 0.214 | 0.153 |
| NCI-H2126 | 0.768 | 0.76 | 0.735 | 0.638 | 0.548 | 0.787 | 0.82 | 0.839 | 0.8 | 0.643 | 0.668 | 0.568 | 0.434 | 0.485 | 0.244 | 0.927 | 0.877 | 0.545 | 0.622 | 0.33 |
| LC-2-ad | 0.674 | 0.264 | 0.286 | 0.127 | 0.105 | 0.333 | 0.364 | 0.24 | 0.123 | 0.13 | 0.546 | 0.612 | 0.451 | 0.244 | 0.142 | 0.899 | 0.833 | 0.711 | 0.34 | 0.305 |
| NCI-H1915 | 0.669 | 0.771 | 0.385 | 0.192 | 0.15 | 0.726 | 0.78 | 0.732 | 0.537 | 0.212 | 0.31 | 0.413 | 0.236 | 0.326 | 0.286 | 0.714 | 0.634 | 0.808 | 0.617 | 0.394 |
| NCI-H1793 | 0.729 | 0.567 | 0.544 | 0.275 | 0.219 | 0.355 | 0.404 | 0.298 | 0.177 | 0.163 | 0.402 | 0.348 |  | 0.419 | 0.214 | 0.203 | 0.184 |  | 0.181 | 0.169 |
| NCI-H2023 | 0.521 | 0.664 | 0.506 | 0.19 | 0.101 | 0.723 | 0.72 | 0.519 | 0.244 | 0.148 | 0.492 | 0.554 | 0.378 | 0.326 | 0.125 | 0.709 | 0.829 | 0.708 | 0.195 | 0.112 |
| COR-L 105 | 0.279 | 0.379 | 0.345 | 0.268 | 0.294 | 0.59 | 0.884 | 0.716 | 0.483 | 0.28 | 0.3 | 0.345 | 0.273 | 0.328 | 0.293 | 0.96 | 0.765 | 0.758 | 0.625 | 0.776 |
| SK-LU-1 | 0.745 | 0.858 | 0.709 | 0.35 | 0.347 | 0.807 | 1.06 | 0.662 | 0.205 | 0.264 | 0.172 | 0.177 | 0.172 | 0.14 | 0.122 | 0.237 | 0.243 | 0.189 | 0.191 | 0.183 |
| LXF-289 | 0.807 | 0.884 | 0.635 | 0.206 | 0.179 | 0.877 | 0.879 | 0.799 | 0.35 | 0.179 | 0.209 | 0.217 | 0.231 | 0.206 | 0.0795 | 0.569 | 0.861 | 0.79 | 0.367 | 0.129 |
| PC-3 [JPC-3] | 0.455 | 0.422 | 0.473 | 0.364 | 0.314 | 0.784 | 0.957 | 0.758 | 0.63 | 0.511 | 0.915 | 0.915 | 0.871 | 0.961 | 0.927 | 0.67 | 0.717 | 0.549 | 0.581 | 0.371 |
| NCI-H1666 | 0.607 | 0.417 | 0.344 | 0.247 | 0.288 | 0.761 | 0.579 | 0.518 | 0.362 | 0.324 | 0.796 | 0.802 | 0.594 | 0.361 | 0.293 | 0.949 | 0.906 | 0.77 | 0.399 | 0.406 |
| NCI-H2085 | 0.689 | 0.689 | 0.6 | 0.437 | 0.449 | 0.994 | 1.02 | 0.849 | 0.508 | 0.465 | 0.219 | 0.241 | 0.226 | 0.23 | 0.197 | 0.34 | 0.514 | 0.451 | 0.338 | 0.265 |
| NCI-H1734 | 0.802 | 0.854 | 0.691 | 0.268 | 0.184 | 0.719 | 0.571 | 0.518 | 0.24 | 0.139 | 0.415 | 0.449 | 0.312 | 0.436 | 0.21 | 0.226 | 0.192 | 0.182 | 0.185 | 0.168 |
| NCI-H2228 | 0.999 | 1.12 | 0.852 | 0.355 | 0.505 | 1.02 | 0.625 | 0.664 | 0.437 | 0.363 | 0.61 | 0.473 | 0.306 | 0.418 | 0.131 | 0.159 | 0.141 | 0.154 | 0.117 | 0.147 |
